From ChEMBL document CHEMBL6114953, “De novo discovery of cyclic peptide inhibitors of IL-11 signaling” (Bioorg Med Chem, 2025) come the findings set out here.

Where a SMILES comes first, the peptide text is derived from it. Bridges are numbered along the chain shown (N, C = ends). [ ]: non-standard residue; d: D form. ξ: configuration not given here. Met(O) = CS(=O)CC[C@H](N)C(=O)O; ξH = NC(Cc1c[nH]cn1)C(=O)O; Nle = CCCC[C@H](N)C(=O)O Some results are limits rather than exact numbers.

The experiment in a line: Inhibition of his-tagged recombinant human IL-11 (22 to 199 residues) expressed in HEK293 cells/biotinylated recombinant human IL-11Ralpha (24 to 370 residues) expressed in HEK293 cells incubated for 1 hr by AlphaLISA assay. It is filed as cell-based. On the technique in general: Bead proximity is the source of the signal in Alpha formats.
Take `CSCC[C@@H]1NC(=O)[C@H](Cc2c[nH]cn2)NC(=O)[C@H](CO)NC(=O)[C@@H](NC(=O)[C@H](Cc2c[nH]c3ccccc23)NC(=O)[C@H](Cc2ccc(O)cc2)NC(=O)[C@H](Cc2ccccc2)NC(=O)[C@H](CCC(N)=O)NC(=O)[C@@H](NC(=O)[C@@H](NC(=O)[C@H](CCC(N)=O)NC(C)=O)[C@@H](C)O)C(C)C)CSSC[C@@H](C(=O)N[C@@H](Cc2c[nH]c3ccccc23)C(=O)N[C@@H](CCCNC(=N)N)C(N)=O)NC(=O)[C@H](C(C)C)NC(=O)[C@H]([C@@H](C)O)NC(=O)[C@H]([C@@H](C)O)NC(=O)[C@H](Cc2ccc(O)cc2)NC(=O)[C@H](Cc2ccc(O)cc2)NC1=O` (Ac-QTVQFYWCSHMYYTTVCWR-NH2; disulfide 8-17): the inhibitory constant (Ki) (commonly the equilibrium dissociation constant of an inhibitor or competing ligand from its target) was 800 nM.
Turning to `CCCC[C@@H]1NC(=O)[C@H](Cc2c[nH]cn2)NC(=O)[C@H](CO)NC(=O)[C@@H](NC(=O)[C@H](Cc2c[nH]c3ccccc23)NC(=O)[C@H](Cc2ccc(O)cc2)NC(=O)[C@H](Cc2ccccc2)NC(=O)[C@H](CCC(N)=O)NC(=O)[C@@H](NC(=O)[C@@H](NC(=O)[C@H](CCC(N)=O)NC(=O)[C@H](C)N)[C@@H](C)O)C(C)C)CSSC[C@@H](C(=O)N[C@@H](Cc2c[nH]c3ccccc23)C(=O)N[C@@H](CCCNC(=N)N)C(N)=O)NC(=O)[C@H](C(C)C)NC(=O)[C@H]([C@@H](C)O)NC(=O)[C@H]([C@@H](C)O)NC(=O)[C@H](Cc2ccc(O)cc2)NC(=O)[C@H](Cc2ccc(O)cc2)NC1=O` (H-AQTVQFYWCSH[Nle]YYTTVCWR-NH2; disulfide 9-18), the Ki is 260 nM.
As to `CC(C)C[C@@H]1NC(=O)CNC(=O)[C@H](Cc2ccccc2)NC(=O)[C@H](Cc2c[nH]c3ccccc23)NC(=O)[C@H](CCC(=O)O)NC(=O)[C@H](Cc2c[nH]c3ccccc23)NC(=O)[C@H]([C@@H](C)O)NC(=O)[C@@H]2CCCN2C(=O)[C@H](Cc2c[nH]cn2)NC(=O)[C@@H](NC(=O)[C@H](Cc2ccccc2)NC(=O)[C@H](CCC(=O)O)NC(=O)[C@@H](NC(=O)[C@@H](NC(=O)[C@H](CCC(=O)O)NC(=O)[C@H](C)N)[C@@H](C)O)C(C)C)CSSC[C@@H](C(N)=O)NC1=O` (H-AETVEFCHPTWEWFGLC-NH2; disulfide 7-17), the inhibition constant Ki was 2400 nM.
As for `CC(=O)N[C@@H](Cc1ccc(O)cc1)C(=O)N[C@@H](Cc1c[nH]c2ccccc12)C(=O)N[C@H]1CSSC[C@@H](C(=O)N[C@@H](Cc2c[nH]c3ccccc23)C(=O)N[C@@H](CCCNC(=N)N)C(N)=O)NC(=O)[C@H](C(C)C)NC(=O)[C@H]([C@@H](C)O)NC(=O)[C@H]([C@@H](C)O)NC(=O)[C@H](Cc2ccc(O)cc2)NC(=O)[C@H](Cc2ccc(O)cc2)NC(=O)CNC(=O)[C@H](Cc2c[nH]cn2)NC(=O)[C@H](CO)NC1=O` (Ac-YWCSHGYYTTVCWR-NH2; disulfide 3-12), the inhibition constant Ki was determined as 1700 nM.
On to `CSCC[C@@H]1NC(=O)[C@H](Cc2c[nH]cn2)NC(=O)[C@H](CO)NC(=O)[C@@H](NC(=O)[C@H](Cc2c[nH]c3ccccc23)NC(=O)[C@H](Cc2ccc(O)cc2)NC(=O)[C@H](Cc2ccccc2)NC(=O)[C@H](CCC(N)=O)NC(=O)[C@@H](NC(=O)[C@@H](NC(=O)[C@H](CCC(N)=O)NC(=O)[C@H](C)N)[C@@H](C)O)C(C)C)CSSC[C@@H](C(=O)N[C@@H](Cc2c[nH]c3ccccc23)C(=O)N[C@@H](CCCNC(=N)N)C(N)=O)NC(=O)[C@H](C(C)C)NC(=O)[C@H]([C@@H](C)O)NC(=O)[C@H]([C@@H](C)O)NC(=O)[C@H](Cc2ccc(O)cc2)NC(=O)[C@H](Cc2ccc(O)cc2)NC1=O` (H-AQTVQFYWCSHMYYTTVCWR-NH2; disulfide 9-18), for which the Ki came out at 180 nM.
Next, `CSCC[C@@H]1NC(=O)[C@H](Cc2c[nH]cn2)NC(=O)[C@H](CO)NC(=O)[C@@H](NC(C)=O)CSSC[C@@H](C(=O)N[C@@H](Cc2c[nH]c3ccccc23)C(=O)N[C@@H](CCCNC(=N)N)C(N)=O)NC(=O)[C@H](C(C)C)NC(=O)[C@H]([C@@H](C)O)NC(=O)[C@H]([C@@H](C)O)NC(=O)[C@H](Cc2ccc(O)cc2)NC(=O)[C@H](Cc2ccc(O)cc2)NC1=O` (Ac-CSHMYYTTVCWR-NH2; disulfide 1-10): > 28000 nM; `CSCC[C@@H]1NC(=O)[C@H](Cc2c[nH]cn2)NC(=O)[C@H](CO)NC(=O)[C@@H](NC(=O)[C@H](Cc2c[nH]c3ccccc23)NC(=O)[C@H](Cc2ccc(O)cc2)NC(=O)[C@H](Cc2ccccc2)NC(C)=O)CSSC[C@@H](C(=O)N[C@@H](Cc2c[nH]c3ccccc23)C(=O)N[C@@H](CCCNC(=N)N)C(N)=O)NC(=O)[C@H](C(C)C)NC(=O)[C@H]([C@@H](C)O)NC(=O)[C@H]([C@@H](C)O)NC(=O)[C@H](Cc2ccc(O)cc2)NC(=O)[C@H](Cc2ccc(O)cc2)NC1=O` (Ac-FYWCSHMYYTTVCWR-NH2; disulfide 4-13): 330 nM; `CSCC[C@@H]1NC(=O)[C@H](Cc2c[nH]cn2)NC(=O)[C@H](CO)NC(=O)[C@@H](NC(=O)[C@H](Cc2c[nH]c3ccccc23)NC(=O)[C@H](Cc2ccc(O)cc2)NC(=O)[C@H](Cc2ccccc2)NC(=O)[C@H](CCC(N)=O)NC(=O)[C@@H](NC(=O)[C@@H](NC(C)=O)[C@@H](C)O)C(C)C)CSSC[C@@H](C(=O)N[C@@H](Cc2c[nH]c3ccccc23)C(=O)N[C@@H](CCCNC(=N)N)C(N)=O)NC(=O)[C@H](C(C)C)NC(=O)[C@H]([C@@H](C)O)NC(=O)[C@H]([C@@H](C)O)NC(=O)[C@H](Cc2ccc(O)cc2)NC(=O)[C@H](Cc2ccc(O)cc2)NC1=O` (Ac-TVQFYWCSHMYYTTVCWR-NH2; disulfide 7-16): 900 nM.
Consider `CSCC[C@@H]1NC(=O)[C@H](Cc2c[nH]cn2)NC(=O)[C@H](CO)NC(=O)[C@@H](NC(=O)[C@H](Cc2c[nH]c3ccccc23)NC(C)=O)CSSC[C@@H](C(=O)N[C@@H](Cc2c[nH]c3ccccc23)C(=O)N[C@@H](CCCNC(=N)N)C(N)=O)NC(=O)[C@H](C(C)C)NC(=O)[C@H]([C@@H](C)O)NC(=O)[C@H]([C@@H](C)O)NC(=O)[C@H](Cc2ccc(O)cc2)NC(=O)[C@H](Cc2ccc(O)cc2)NC1=O` (Ac-WCSHMYYTTVCWR-NH2; disulfide 2-11), for which the Ki was determined as 3200 nM.
For `CC(C)[C@H](NC(=O)[C@@H](NC(=O)[C@H](CCC(N)=O)NC(=O)[C@H](C)N)[C@@H](C)O)C(=O)N[C@@H](CCC(N)=O)C(=O)N[C@@H](Cc1ccccc1)C(=O)N[C@@H](Cc1ccc(O)cc1)C(=O)N[C@@H](Cc1c[nH]c2ccccc12)C(=O)N[C@H]1CSSC[C@@H](C(=O)N[C@@H](Cc2c[nH]c3ccccc23)C(=O)N[C@@H](CCCNC(=N)N)C(N)=O)NC(=O)[C@H](C(C)C)NC(=O)[C@H]([C@@H](C)O)NC(=O)[C@H]([C@@H](C)O)NC(=O)[C@H](Cc2ccc(O)cc2)NC(=O)[C@H](Cc2ccc(O)cc2)NC(=O)[C@H](CC[S+](C)[O-])NC(=O)[C@H](Cc2c[nH]cn2)NC(=O)[C@H](CO)NC1=O` (stereo partly specified) (H-AQTVQFYWCSH[Met(O)]YYTTVCWR-NH2; disulfide 9-18), the Ki worked out at 320 nM.
The figure for `CC(C)C[C@@H]1NC(=O)[C@H](Cc2c[nH]c3ccccc23)NC(=O)[C@@H](NC(=O)[C@H](Cc2ccccc2)NC(=O)[C@H](CCC(=O)O)NC(=O)[C@@H](NC(=O)[C@@H](NC(=O)[C@H](CCC(=O)O)NC(=O)[C@H](C)N)[C@@H](C)O)C(C)C)CSSC[C@@H](C(N)=O)NC(=O)[C@H](CCC(=O)O)NC(=O)[C@H](Cc2ccc(O)cc2)NC(=O)[C@H](Cc2c[nH]c3ccccc23)NC(=O)[C@H](Cc2ccc(O)cc2)NC(=O)C(Cc2c[nH]cn2)NC(=O)[C@H](Cc2c[nH]c3ccccc23)NC(=O)[C@@H]2CCCN2C1=O` (stereo partly specified) (H-AETVEFCWLPW[ξH]YWYEC-NH2; disulfide 7-17) is 1300 nM; for `CSCC[C@@H]1NC(=O)[C@H](Cc2c[nH]cn2)NC(=O)[C@H](CO)NC(=O)[C@@H](NC(=O)[C@H](Cc2c[nH]c3ccccc23)NC(=O)[C@H](Cc2ccc(O)cc2)NC(=O)[C@H](Cc2ccccc2)NC(=O)[C@H](CCC(=O)O)NC(=O)[C@@H](NC(=O)[C@@H](NC(=O)[C@H](CCC(=O)O)NC(=O)[C@H](C)N)[C@@H](C)O)C(C)C)CSSC[C@@H](C(=O)N[C@@H](Cc2c[nH]c3ccccc23)C(=O)N[C@@H](CCCNC(=N)N)C(N)=O)NC(=O)[C@H](C(C)C)NC(=O)[C@H]([C@@H](C)O)NC(=O)[C@H]([C@@H](C)O)NC(=O)[C@H](Cc2ccc(O)cc2)NC(=O)[C@H](Cc2ccc(O)cc2)NC1=O` (H-AETVEFYWCSHMYYTTVCWR-NH2; disulfide 9-18) it is 3900 nM.
For `CC(C)C[C@@H]1NC(=O)[C@H](Cc2c[nH]c3ccccc23)NC(=O)[C@@H](NC(=O)[C@H](Cc2ccccc2)NC(=O)[C@H](CCC(=O)O)NC(=O)[C@@H](NC(=O)[C@@H](NC(=O)[C@H](CCC(=O)O)NC(=O)[C@H](C)N)[C@@H](C)O)C(C)C)CSSC[C@@H](C(N)=O)NC(=O)[C@H](CCC(N)=O)NC(=O)[C@H](CCC(=O)O)NC(=O)[C@H](Cc2c[nH]c3ccccc23)NC(=O)[C@H](Cc2c[nH]c3ccccc23)NC(=O)[C@H](CCC(N)=O)NC(=O)[C@H](Cc2ccccc2)NC(=O)[C@@H]2CCCN2C1=O` (H-AETVEFCWLPFQWWEQC-NH2; disulfide 7-17), the Ki was found to be 350 nM.
Next, `CC(=O)NCC(=O)N[C@@H](Cc1c[nH]c2ccccc12)C(=O)N[C@H]1CSSC[C@@H](C(=O)N[C@@H](CC(C)C)C(=O)N[C@@H](CCCNC(=N)N)C(N)=O)NC(=O)[C@H](Cc2c[nH]c3ccccc23)NC(=O)[C@H](C)NC(=O)[C@H](CO)NC(=O)[C@H](Cc2ccc(O)cc2)NC(=O)[C@H](Cc2ccc(O)cc2)NC(=O)CNC(=O)[C@H](CCCCN)NC(=O)[C@H](Cc2c[nH]c3ccccc23)NC1=O` (Ac-GWCWKGYYSAWCLR-NH2; disulfide 3-12): 1100 nM; `CC(=O)N[C@H]1CSSC[C@@H](C(N)=O)NC(=O)[C@H](C(C)C)NC(=O)[C@H](Cc2ccc(O)cc2)NC(=O)[C@H](Cc2c[nH]c3ccccc23)NC(=O)[C@H](Cc2c[nH]c3ccccc23)NC(=O)[C@H](Cc2c[nH]cn2)NC(=O)[C@H](Cc2ccc(O)cc2)NC(=O)[C@@H]2CCCN2C(=O)[C@H](CCCCN)NC(=O)[C@H](Cc2c[nH]c3ccccc23)NC1=O` (Ac-CWKPYHWWYVC-NH2; disulfide 1-11): 2500 nM; `CSCC[C@@H]1NC(=O)[C@H](Cc2c[nH]cn2)NC(=O)[C@H](CO)NC(=O)[C@@H](NC(=O)[C@H](Cc2c[nH]c3ccccc23)NC(=O)[C@H](Cc2ccc(O)cc2)NC(C)=O)CSSC[C@@H](C(N)=O)NC(=O)[C@H](C(C)C)NC(=O)[C@H]([C@@H](C)O)NC(=O)[C@H]([C@@H](C)O)NC(=O)[C@H](Cc2ccc(O)cc2)NC(=O)[C@H](Cc2ccc(O)cc2)NC1=O` (Ac-YWCSHMYYTTVC-NH2; disulfide 3-12): > 28000 nM.
